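GI50 is the concentration that inhibits growth by half. TGI denotes the concentration required for complete inhibition of growth.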
Columns and labels:
Test in all cases: DTP human tumour cell line panel, 384-well format
K-562 leukemia = test system: K-562 leukemia
HCT-15 colon = test system: HCT-15 colon
HCT-116 colon = test system: HCT-116 colon
OVCAR-3 ovarian = test system: OVCAR-3 ovarian
MOLT-4 leukemia = test system: MOLT-4 leukemia
PC-3 prostate = test system: PC-3 prostate
CCRF-CEM leukemia = test system: CCRF-CEM leukemia
ACHN renal = test system: ACHN renal
A549 NSCLC = test system: A549 NSCLC
MCF7 breast = test system: MCF7 breast
SW-620 colon = test system: SW-620 colon
T-47D breast = test system: T-47D breast
HOP-92 NSCLC = test system: HOP-92 NSCLC
MDA-MB-435 melanoma = test system: MDA-MB-435 melanoma
SF-539 CNS = test system: SF-539 CNS
UO-31 renal = test system: UO-31 renal
CAKI-1 renal = test system: CAKI-1 renal
HT29 colon = test system: HT29 colon
UACC-62 melanoma = test system: UACC-62 melanoma
MDA-MB-231 breast = test system: MDA-MB-231 breast
786-0 renal = test system: 786-0 renal
SK-OV-3 ovarian = test system: SK-OV-3 ovarian
UACC-257 melanoma = test system: UACC-257 melanoma
MDA-MB-468 breast = test system: MDA-MB-468 breast
SNB-75 CNS = test system: SNB-75 CNS
A498 renal = test system: A498 renal
HOP-62 NSCLC = test system: HOP-62 NSCLC
NCI/ADR-RES ovarian = test system: NCI/ADR-RES ovarian
BT-549 breast = test system: BT-549 breast
OVCAR-8 ovarian = test system: OVCAR-8 ovarian
IGROV1 ovarian = test system: IGROV1 ovarian
RPMI-8226 leukemia = test system: RPMI-8226 leukemia
OVCAR-4 ovarian = test system: OVCAR-4 ovarian
TK-10 renal = test system: TK-10 renal
RXF 393 renal = test system: RXF 393 renal
MALME-3M melanoma = test system: MALME-3M melanoma
DU-145 prostate = test system: DU-145 prostate
SK-MEL-2 melanoma = test system: SK-MEL-2 melanoma
NCI-H226 lung = test system: NCI-H226 lung
M14 melanoma = test system: M14 melanoma
SNB-19 CNS = test system: SNB-19 CNS
NCI-H522 lung = test system: NCI-H522 lung
HS 578T breast = test system: HS 578T breast
KM12 colon = test system: KM12 colon
HL-60(TB) leukemia = test system: HL-60(TB) leukemia
SK-MEL-28 melanoma = test system: SK-MEL-28 melanoma
SF-268 CNS = test system: SF-268 CNS
OVCAR-5 ovarian = test system: OVCAR-5 ovarian
U251 glioblastoma = test system: U251 glioblastoma
SN12C renal = test system: SN12C renal
NCI-H23 lung = test system: NCI-H23 lung
SF-295 CNS = test system: SF-295 CNS
NCI-H322M lung = test system: NCI-H322M lung

Compound `CCCCC(=O)OCC(=O)[C@]1(O)Cc2c(O)c3c(c(O)c2[C@@H](OC2CC(NC(=O)C(F)(F)F)C(O)C(C)O2)C1)C(=O)c1c(OC)cccc1C3=O` (some centres undefined) has a GI50 (K-562 leukemia) of 104 nM, a TGI (K-562 leukemia) of 1760 nM and a GI50 (HCT-15 colon) of 98.5 nM. The TGI (HCT-15 colon) was 1620 nM, the GI50 (HCT-116 colon) was 49 nM and the TGI (HCT-116 colon) was 34000 nM. It also gave a GI50 (OVCAR-3 ovarian) of 1200 nM, a TGI (OVCAR-3 ovarian) of 44500 nM and a TGI (MOLT-4 leukemia) of 10.4 nM. The GI50 (PC-3 prostate) was 1020 nM, the TGI (PC-3 prostate) was 4020 nM and the GI50 (CCRF-CEM leukemia) was 17.3 nM. The TGI (CCRF-CEM leukemia) was 32.3 nM, the GI50 (ACHN renal) was 213 nM and the TGI (ACHN renal) was 1890 nM. For the same compound, the GI50 (A549 NSCLC) was 84.4 nM, the TGI (A549 NSCLC) was 1780 nM and the GI50 (MCF7 breast) was 84.9 nM. The TGI (MCF7 breast) was 7560 nM, the GI50 (SW-620 colon) was 75.3 nM and the TGI (SW-620 colon) was 16200 nM. The GI50 (T-47D breast) was 96.2 nM, the TGI (T-47D breast) was 2570 nM and the GI50 (HOP-92 NSCLC) was 142 nM. For the same compound, the TGI (HOP-92 NSCLC) was 19200 nM, the GI50 (MDA-MB-435 melanoma) was 738 nM and the TGI (MDA-MB-435 melanoma) was 2630 nM. It also gave a GI50 (SF-539 CNS) of 73.1 nM, a TGI (SF-539 CNS) of 1340 nM and a GI50 (UO-31 renal) of 1480 nM. The TGI (UO-31 renal) was 2990 nM, the GI50 (CAKI-1 renal) was 128 nM and the TGI (CAKI-1 renal) was 2530 nM. It also gave a GI50 (HT29 colon) of 303 nM, a TGI (HT29 colon) of 2290 nM and a GI50 (UACC-62 melanoma) of 50.6 nM. It also gave a TGI (UACC-62 melanoma) of 1020 nM, a GI50 (MDA-MB-231 breast) of 126 nM and a TGI (MDA-MB-231 breast) of 2100 nM. For the same compound, the GI50 ([…]-0 renal) was 64.2 nM, the TGI (786-0 renal) was 1980 nM and the GI50 (SK-OV-3 ovarian) was 107 nM. It also gave a TGI (SK-OV-3 ovarian) of 5440 nM, a GI50 (UACC-257 melanoma) of 404 nM and a TGI (UACC-257 melanoma) of 1740 nM. The GI50 (MDA-MB-468 breast) was 29.9 nM, the TGI (MDA-MB-468 breast) was 85.9 nM and the GI50 (SNB-75 CNS) was 142 nM. For the same compound, the TGI (SNB-75 CNS) was 1290 nM, the GI50 (A498 renal) was 87.5 nM and the TGI (A498 renal) was 2870 nM. The GI50 (HOP-62 NSCLC) was 42.1 nM, the TGI (HOP-62 NSCLC) was 327 nM and the GI50 (NCI/ADR-RES ovarian) was 7460 nM. For the same compound, the TGI (NCI/ADR-RES ovarian) was 44100 nM, the GI50 (BT-549 breast) was 73.8 nM and the TGI (BT-549 breast) was 1440 nM. It also gave a GI50 (OVCAR-8 ovarian) of 73.3 nM, a TGI (OVCAR-8 ovarian) of 1810 nM and a GI50 (IGROV1 ovarian) of 1110 nM. It also gave a TGI (IGROV1 ovarian) of 3860 nM, a GI50 (RPMI-8226 leukemia) of 12.9 nM and a TGI (RPMI-8226 leukemia) of 36 nM. It also gave a GI50 (OVCAR-4 ovarian) of 1680 nM, a TGI (OVCAR-4 ovarian) of 7010 nM and a GI50 (TK-10 renal) of 997 nM. The TGI (TK-10 renal) was 5090 nM, the GI50 (RXF 393 renal) was 320 nM and the TGI (RXF 393 renal) was 1940 nM. It also gave a GI50 (MALME-3M melanoma) of 188 nM, a TGI (MALME-3M melanoma) of 1660 nM and a GI50 (DU-145 prostate) of 37.1 nM. The TGI (DU-145 prostate) was 1000 nM, the GI50 (SK-MEL-2 melanoma) was 372 nM and the TGI (SK-MEL-2 melanoma) was 991 nM. For the same compound, the GI50 (NCI-H226 lung) was 122 nM, the TGI (NCI-H226 lung) was 1190 nM and the GI50 (M14 melanoma) was 73.2 nM. It also gave a TGI (M14 melanoma) of 1380 nM, a GI50 (SNB-19 CNS) of 64.8 nM and a TGI (SNB-19 CNS) of 11900 nM. It also gave a GI50 (NCI-H522 lung) of 101 nM, a TGI (NCI-H522 lung) of 1000 nM and a GI50 (HS 578T breast) of 122 nM. It also gave a TGI (HS 578T breast) of 1870 nM, a GI50 (KM12 colon) of 99.6 nM and a TGI (KM12 colon) of 1700 nM. For the same compound, the TGI (HL-60(TB) leukemia) was 16.6 nM, the GI50 (SK-MEL-28 melanoma) was 468 nM and the TGI (SK-MEL-28 melanoma) was 2020 nM. The GI50 (SF-268 CNS) was 70.2 nM, the TGI (SF-268 CNS) was 2110 nM and the GI50 (OVCAR-5 ovarian) was 1240 nM. It also gave a TGI (OVCAR-5 ovarian) of 5620 nM, a GI50 (U251 glioblastoma) of 45 nM and a TGI (U251 glioblastoma) of 10400 nM. It also gave a GI50 (SN12C renal) of 60.6 nM, a TGI (SN12C renal) of 1370 nM and a GI50 (NCI-H23 lung) of 60.3 nM. For the same compound, the TGI (NCI-H23 lung) was 1150 nM, the GI50 (SF-295 CNS) was 53.6 nM and the TGI (SF-295 CNS) was 1460 nM. It also gave a GI50 (NCI-H322M lung) of 2420 nM and a TGI (NCI-H322M lung) of 15200 nM.
